Assay results published in ChEMBL document CHEMBL5143533, “Development of isoquinolinone derivatives as immunoproteasome inhibitors” (Bioorg Med Chem Lett, 2022).
Where a SMILES comes first, the peptide text is derived from it. The star is where a group is joined. Cbz = O=C(OCc1ccccc1)*

Experiments:
[1] = molecular target: T1, Proteasome Macropain subunit MB1 (Homo sapiens, UniProt P28074); assay: Inhibition of 20S constitutive proteosome beta5c subunit (unknown origin) assessed as substrate hydrolysis using Suc-Leu-Leu-Val-Tyr-AMC as fluorogenic substrate at 100 uM
T1 sequence (P28074 whole entry): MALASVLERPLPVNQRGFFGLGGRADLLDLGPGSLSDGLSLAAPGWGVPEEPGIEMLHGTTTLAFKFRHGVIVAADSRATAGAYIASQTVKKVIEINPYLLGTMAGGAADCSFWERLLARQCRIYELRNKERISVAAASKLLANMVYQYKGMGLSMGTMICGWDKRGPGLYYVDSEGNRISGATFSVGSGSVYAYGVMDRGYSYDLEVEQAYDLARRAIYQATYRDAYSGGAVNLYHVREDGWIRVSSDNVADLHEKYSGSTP

[2] = Inhibition of 20S immuno proteosome beta5i subunit (unknown origin) assessed as substrate hydrolysis using Suc-Leu-Leu-Val-Tyr-AMC as fluorogenic substrate at 100 uM; set-up: species or system Homo sapiens
[3] = Cytotoxicity against human MM1.R cells assessed as reduction in cell vitality incubated for 24 hrs by MTT assay; format: functional, cell-based; settings: MM.1R
[4] = species on record: Homo sapiens; assay: Reversible inhibition of 20S immuno proteosome beta 5i subunit (unknown origin) assessed as substrate hydrolysis using Suc-Leu-Leu-Val-Tyr-AMC as substrate at 0.25 to 25 uM by fluorescence based assay; settings: dose 0.25-25 µM, time <= 600.0 sec, TDE = time-dependent effect
[5] = Inhibition of 20S immuno proteosome beta5i subunit (unknown origin) assessed as substrate hydrolysis using Z-Leu-Leu-Leu-al as substrate; set-up: species or system Homo sapiens

Row | SMILES | Ki [1] [µM] | Ki [2] [µM] | inhibition [4] | Ki [5] [µM] | EC50 [3] [µM]
1 | COc1cc2ccn(C/C=C/C(=O)NC3CCCCC3)c(=O)c2cc1OC | 23 | 55 |  |  | 
2 | COc1cc2ccn(C/C=C/C(=O)Nc3ccccc3)c(=O)c2cc1OC | 49 | 50 |  |  | 
3 | CC(C)CCNC(=O)Cn1ccc2ccc(Br)cc2c1=O |  |  |  |  | 17.8
4 | CCCCNC(=O)/C=C/Cn1ccc2cc(OC)c(OC)cc2c1=O | 19 | 49 |  |  | 
5 | COc1cc2ccn(C/C=C/C(=O)NCCC(C)C)c(=O)c2cc1OC | 1.18 | 1.91 | Tde |  | 
6 | CC(C)C[C@@H](C=O)NC(=O)[C@H](CC(C)C)NC(=O)[C@H](CC(C)C)NC(=O)OCc1ccccc1 [MG-132] (Cbz-Leu-Leu-Leu-aldehyde) |  |  |  | 0.07 | 

Now from value to compound, other results behind:

Row | Ki [1] [µM] | Ki [2] [µM] | inhibition [4] | Ki [5] [µM] | SMILES | EC50 [3] [µM]
7 | 10.6 | 64 |  |  | COc1cc2ccn(C/C=C/C(=O)NCCCc3ccccc3)c(=O)c2cc1OC | 
8 |  | 65 |  |  | COc1cc2ccn(C/C=C/C(=O)NCc3ccccc3)c(=O)c2cc1OC | 
9 | 60 | 45 |  |  | COc1cc2ccn(C/C=C/C(=O)NCCc3ccccc3)c(=O)c2cc1OC | 
